# Measurements: patent publication US20070004680A1, “Compositions and methods for modulating gated ion channels” (PainCeptor Pharma Corporation, priority 2004, published 2007)
# System: Male Sprague-Dawley rats
# Assay: Formalin test (flinching behaviour)
# Format: in vivo, rat
# Conditions: 10 mg/kg i.v. 10 min prior to formalin in the hind limb; compared with vehicle; n=8
# Description: Male Sprague-Dawley rats (body weight, 180-300 g) are housed together in groups of four animals under standard conditions with unrestricted access to food and water. Rats are housed in the room in which the testing procedure is performed to minimize any stress response to novel environmental cues. All experiments are conducted according to the ethical guidelines for investigations of experimental pain in conscious animals (Zimmerman, 1983).
# Separate groups of rats are used for the different experiments such that each animal is used on one occasion only. All experiments for a given compound are performed using age matched animals in an attempt to avoid variability between experiments. Prior to initiation of the formalin test, 4 rats are habituated in separate testing cages for 15-20 min. […] On the basis of the response pattern, two distinct phases of nociceptive behavior are observed, characterized by flinching of the affected paw and scored (Blackburn-Munro et al., Eur J Pharmacol. 2002 Jun. 12;445(3):231-8). […]
# All data is analysed using Sigmastat 2.03 statistical software (Jandel Scientific GmbH, Germany) and expressed as mean±S.E.M. Two Way Repeated Measures Analysis of Variance (Two Way RM ANOVA) is used to analyse formalin test data and where applicable, this is followed by post-hoc analysis using Bonferroni's t-test to allow comparisons between groups. […]
smiles,measurement,value
C=CC1CN2CCC1CC2[C@@H](OC(=O)CCC1CCCC1)c1ccnc2ccccc12 (stereo partly shown) [Compound A],flinching behaviour in Formalin test,attenuated flinching behaviour
